From patent US20230330041A1, “APPLICATION OF TRIS (HYDROXYMETHYL) AMINOMETHANE PHARMACEUTICALLY ACCEPTABLE SALT TO DRUGS FOR TREATING […]” (BEIJING CHANGSHENG PHARMACEUTICAL TECHNOLOGY CO., LTD., priority 2020, published 2023)
Like-named read-outs stand apart in the source and are kept apart here.

Columns and labels:
[1] = tested on: uric acid crystals in rat kidneys; conditions: for kidney weight / serum uric acid: day 5; for kidneys observed with obvious radial white lines (uric acid crystal deposition): 5 days
Protocol: Except for the normal control group, the other groups were intraperitoneally injected with 300 mg/kg of potassium oteronate and intragastrically perfused with 300 mg/kg of hypoxanthine, and the volume of injection and intragastrical perfusion were 5 ml/kg respectively. The normal control group was administered with the same volume of 0.5% CMC-Na, and the model was established at 0.5 h after the second administration every day with once a day and for five consecutive days. […] The normal and model control groups were administered with the same volume of 0.5% CMC-Na by gastric perfusion.
On the 4th day of the test, the rats were fasted overnight (about 16 h). On the 5th day of the test, the rats were weighed and anesthetized by intraperitoneal injection of 60 mg/kg sodium pentobarbital, with an injection volume of 2 ml/kg. About 0.7 mL of blood was collected from the orbit and then the kidney was removed. The whole blood was centrifuged at 6000 r/min for 10 min, the supernatant was taken and stored at -20° C. for keeping the blood uric acid content to be determined. The kidney was weighed, opened to observe the deposition of uric acid crystals in white radial pattern, and stored at -70° C. for future use.
Uric acid content determination: After the serum was rapidly remelted, the uric acid content was determined according to the method specified in the instructions for use, and the serum uric acid content was calculated.
Data processing: The data were expressed as mean ± standard deviation (x ± SD) and analyzed with SPSS 25.0 software. One-Way ANOVA was used for comparison among multiple groups. LSD test was used for homogeneity of variance, where P <0.05 was considered as statistically significant.

[2] = 50 mg sodium urate in 35 ml of 0.3 mol/L solution pH 7.4±0.5, 36.5° C., 4 hours, 60 rpm
[3] = 36.5° C., 60 rpm
Protocol: Experimental materials were as follows: a. uric acid (crystal); b.
Background: An assumption was set that a 60 kg hyperuricemic patient with a total blood volume of 4500 ml has 7 mg of uric acid dissolved in 100 ml of blood and 3 mg of uric acid crystals in 100 ml of blood.

With `Cl.NC(CO)(CO)CO` [Changsheng No. 1, trimethylol aminomethane hydrochloride] the “dissolution of uric acid in the solution” value (21 mg uric acid in 100 ml of 8 mM (pH 7.4) solution, stirring 1 hour) was “completely dissolved”, the “uric acid level at which the complex did not precipitate as crystals” value (after treatment with the solution, extrapolated to blood) was “up to 1260 µmol/L” and the “uric acid crystal deposition in the kidney, dose dependence” value ([1]; 0.85-3.40 g/kg, solution at pH 7.4) was “dose-dependently reduced”. The kidney weight ([1]; 0.85 g/kg) was 2.636 ± 0.491 g, the serum uric acid ([1]; 0.85 g/kg) was 976.91 ± 172.29 µmol/L and the “kidneys observed with obvious radial white lines (uric acid crystal deposition)” value (from here on “kidneys observed”) ([1]; 0.85 g/kg/day by gavage) was 11/14. The kidney weight ([1]; 1.70 g/kg) was 2.507 ± 0.461 g, the serum uric acid ([1]; 1.70 g/kg) was 838.42 ± 3.19 µmol/L and the “kidneys observed” value ([1]; 1.7 g/kg/day by gavage) was 5/14. The kidney weight ([1]; 3.40 g/kg) was 2.207 ± 0.114 g, the serum uric acid ([1]; 3.40 g/kg) was 965.17 ± 215.90 µmol/L and the “kidneys observed” value ([1]; 3.40 g/kg/day by gavage, hydrochloride) was “no difference from that of the normal control group”. The “kidneys observed” value ([1]; 3.40 g/kg/day by gavage, listed as Changsheng No.1, hydrochloride) was “none of 14”, the “blood uric acid content compared with the model control group” value ([1]; all dose groups (0.85, 1.70, 3.40 g/kg)) was “effect of improvement” and the “dissolution of sodium urate crystals” value [2] was “dissolved completely”. The Dissolving time ([3]; test 1: 0.3 mol/L, 0.5 ml/kg (30 ml), 7 mg dissolved + 3 mg crystalized uric acid per 100 ml) was 4 h, the Dissolving time ([3]; test 2: 0.3 mol/L, 1.0 ml/kg (60 ml), 7 mg dissolved + 3 mg crystalized uric acid per 100 ml) was 2 h and the Dissolving time ([3]; test 3: 0.3 mol/L, 1.5 ml/kg (90 ml), 7 mg dissolved + 3 mg crystalized uric acid per 100 ml) was 2 h. The Dissolving time ([3]; test 4: 0.3 mol/L, 2.0 ml/kg (120 ml), 7 mg dissolved + 3 mg crystalized uric acid per 100 ml) was 0.5 h, the Dissolving time ([3]; test 5: 0.3 mol/L, 3.0 ml/kg (180 ml), 7 mg dissolved + 3 mg crystalized uric acid per 100 ml) was 0.5 h and the Dissolving time ([3]; test 6: 0.6 mol/L, 0.5 ml/kg (30 ml), 7 mg dissolved + 8 mg crystalized uric acid per 100 ml) was 4 h. The Dissolving time ([3]; test 7: 0.6 mol/L, 1.0 ml/kg (60 ml), 7 mg dissolved + 8 mg crystalized uric acid per 100 ml) was 2 h and the Dissolving time ([3]; test 8: 0.6 mol/L, 1.5 ml/kg (90 ml), 7 mg dissolved + 8 mg crystalized uric acid per 100 ml) was 0.5 h.
